We go through 21 compounds from patent US11370798B2 (Vertex Pharmaceuticals Incorporated, priority 2012, dated 2022).

The structures appear in SMILES notation.

The test system of this test is HCT116 colorectal cancer cells. The test can be described thus: Cisplatin sensitization assay (96 h cell viability MTS).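 Note: Test-compound concentration that lowers the Cisplatin IC50 by a set fold.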 The class given is cell-based. The note with it: compound and Cisplatin added simultaneously, Cisplatin sensitization value. An outline of the steps: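 Viability read by MTS (1 h at 37° C) after 96 h co-exposure at 37° C, 5% CO2. Test compound and cisplatin were dosed simultaneously in a full concentration matrix, each 2-fold serially diluted from 10 μM final; sensitization values binned in μM.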
For `Nc1nn2cc(Cl)cnc2c1C(=O)Nc1cnccc1-n1ccnc1` [I-N-29, N-(4-(1H-imidazol-1-yl)pyridin-3-yl)-2-amino-6-chloropyrazolo[1,5-a]pyrimidine-3-carboxamide], the “Cisplatin Sensitization Assay” value is on record as “++ (Cisplatin sensitization value>0.02 μM but <0.2 μM)”. The value for `Cc1nc(C(F)(F)F)cn1-c1ccncc1NC(=O)c1c(N)nn2cc(F)cnc12` [I-N-30, 2-amino-6-fluoro-N-(4-(2-methyl-4-(trifluoromethyl)-1H-imidazol-1-yl)pyridin-3-yl)pyrazolo[1,5-a]pyrimidine-3-carboxamide] was “++ (Cisplatin sensitization value>0.02 μM but <0.2 μM)”. Consider `Nc1nn2cc(F)cnc2c1C(=O)Nc1cnccc1N1CCN(C2COC2)C2CC21` (stereo not drawn) [I-N-31, 2-amino-6-fluoro-N-(4-(5-(oxetan-3-yl)-2,5-diazabicyclo[4.1.0]heptan-2-yl)pyridin-3-yl)pyrazolo[1,5-a]pyrimidine-3-carboxamide], for which the “Cisplatin Sensitization Assay” value is recorded as “+ (Cisplatin sensitization value>0.2 μM but <5 μM)”. Take `Nc1nn2cc(F)cnc2c1C(=O)Nc1cncc(C2CC2)c1N1CCN(C2COC2)CC1` [I-N-32, 2-amino-N-(5-cyclopropyl-4-(4-(oxetan-3-yl)piperazin-1-yl)pyridin-3-yl)-6-fluoropyrazolo[1,5-a]pyrimidine-3-carboxamide]: the “Cisplatin Sensitization Assay” value was “++ (Cisplatin sensitization value>0.02 μM but <0.2 μM)”.

With `Nc1nn2cc(F)cnc2c1C(=O)Nc1cnccc1N1CCN(C2CC2)CC1` [I-N-33, 2-amino-N-(4-(4-cyclopropylpiperazin-1-yl)pyridin-3-yl)-6-fluoropyrazolo[1,5-a]pyrimidine-3-carboxamide], the “Cisplatin Sensitization Assay” value was “+ (Cisplatin sensitization value>0.2 μM but <5 μM)”.

Consider `CC(C)(C)N1CCN(c2ccncc2NC(=O)c2c(N)nn3cc(Cl)cnc23)CC1` [I-N-34, 2-amino-N-(4-(4-(tert-butyl)piperazin-1-yl)pyridin-3-yl)-6-chloropyrazolo[1,5-a]pyrimidine-3-carboxamide], for which the “Cisplatin Sensitization Assay” value is given as “++ (Cisplatin sensitization value>0.02 μM but <0.2 μM)”. The value for `CN(C)[C@H]1CCN(c2ccncc2NC(=O)c2c(N)nn3cc(Cl)cnc23)C[C@@H]1O` [I-N-35, 2-amino-6-chloro-N-(4-((3S,4S)-4-(dimethylamino)-3-hydroxypiperidin-1-yl)pyridin-3-yl)pyrazolo[1,5-a]pyrimidine-3-carboxamide] was “+ (Cisplatin sensitization value>0.2 μM but <5 μM)”; that for `CN(C)CC1(O)CCN(c2ccncc2NC(=O)c2c(N)nn3cc(Cl)cnc23)CC1` [I-N-36, 2-amino-6-chloro-N-(4-(4-((dimethylamino)methyl)-4-hydroxypiperidin-1-yl)pyridin-3-yl)pyrazolo[1,5-a]pyrimidine-3-carboxamide] was “++ (Cisplatin sensitization value>0.02 μM but <0.2 μM)”. The value for `CN(C)C1CCN(c2ccncc2NC(=O)c2c(N)nn3cc(Cl)cnc23)CC1` [I-N-37, 2-amino-6-chloro-N-(4-(4-(dimethylamino)piperidin-1-yl)pyridin-3-yl)pyrazolo[1,5-a]pyrimidine-3-carboxamide] was “++ (Cisplatin sensitization value>0.02 μM but <0.2 μM)”; that for `Nc1nn2cc(F)cnc2c1C(=O)Nc1cncc(Cl)c1N1CCN2CCN(C3COC3)CC2C1` (stereo not drawn) [I-N-38, 2-amino-N-(5-chloro-4-(8-(oxetan-3-yl)hexahydro-1H-pyrazino[1,2-a]pyrazin-2(6H)-yl)pyridin-3-yl)-6-fluoropyrazolo[1,5-a]pyrimidine-3-carboxamide] was “++ (Cisplatin sensitization value>0.02 μM but <0.2 μM)”. Take `CC(C)N1CCN(c2ccncc2NC(=O)c2c(N)nn3cc(Cl)cnc23)CC1` [I-N-39, 2-amino-6-chloro-N-(4-(4-isopropylpiperazin-1-yl)pyridin-3-yl)pyrazolo[1,5-a]pyrimidine-3-carboxamide]: the “Cisplatin Sensitization Assay” value was “++ (Cisplatin sensitization value>0.02 μM but <0.2 μM)”. The value for `CN(C)C1CCCN(c2ccncc2NC(=O)c2c(N)nn3cc(Cl)cnc23)C1` (stereo not drawn) [I-N-40, 2-amino-6-chloro-N-(4-(3-(dimethylamino)piperidin-1-yl)pyridin-3-yl)pyrazolo[1,5-a]pyrimidine-3-carboxamide] was “++ (Cisplatin sensitization value>0.02 μM but <0.2 μM)”; that for `CN1CCN(c2c(Cl)cncc2NC(=O)c2c(N)nn3cc(Cl)cnc23)CC1` [I-N-41, 2-amino-6-chloro-N-(5-chloro-4-(4-methylpiperazin-1-yl)pyridin-3-yl)pyrazolo[1,5-a]pyrimidine-3-carboxamide] was “+++ (Cisplatin sensitization value of <0.02 μM)”; that for `CN1CCCN(c2ccncc2NC(=O)c2c(N)nn3cc(Cl)cnc23)CC1` [I-N-43, 2-amino-6-chloro-N-(4-(4-methyl-1,4-diazepan-1-yl)pyridin-3-yl)pyrazolo[1,5-a]pyrimidine-3-carboxamide] was “++ (Cisplatin sensitization value>0.02 μM but <0.2 μM)”.

In the case of `Nc1nn2cc(Cl)cnc2c1C(=O)Nc1cnccc1N1CCn2ccnc2C1` [I-N-44, 2-amino-6-chloro-N-(4-(5,6-dihydroimidazo[1,2-a]pyrazin-7(8H)-yl)pyridin-3-yl)pyrazolo[1,5-a]pyrimidine-3-carboxamide], the “Cisplatin Sensitization Assay” value is “++ (Cisplatin sensitization value>0.02 μM but <0.2 μM)”. The value for `CN(C)CC1CCN(c2ccncc2NC(=O)c2c(N)nn3cc(Cl)cnc23)CC1` [I-N-45, 2-amino-6-chloro-N-(4-(4-((dimethylamino)methyl)piperidin-1-yl)pyridin-3-yl)pyrazolo[1,5-a]pyrimidine-3-carboxamide] was “++ (Cisplatin sensitization value>0.02 μM but <0.2 μM)”; that for `COC1(CN(C)C)CCN(c2ccncc2NC(=O)c2c(N)nn3cc(Cl)cnc23)CC1` [I-N-46, 2-amino-6-chloro-N-(4-(4-((dimethylamino)methyl)-4-methoxypiperidin-1-yl)pyridin-3-yl)pyrazolo[1,5-a]pyrimidine-3-carboxamide] was “+++ (Cisplatin sensitization value of <0.02 μM)”; that for `COCC1CN(c2ccncc2NC(=O)c2c(N)nn3cc(Cl)cnc23)CCN1C` (stereo not drawn) [I-N-47, 2-amino-6-chloro-N-(4-(3-(methoxymethyl)-4-methylpiperazin-1-yl)pyridin-3-yl)pyrazolo[1,5-a]pyrimidine-3-carboxamide] was “++ (Cisplatin sensitization value>0.02 μM but <0.2 μM)”. The value for `Nc1nn2cc(Cl)cnc2c1C(=O)Nc1cnccc1N1CCN(C2CCC2)CC1` [I-N-48, 2-amino-6-chloro-N-(4-(4-cyclobutylpiperazin-1-yl)pyridin-3-yl)pyrazolo[1,5-a]pyrimidine-3-carboxamide] was “++ (Cisplatin sensitization value>0.02 μM but <0.2 μM)”. The value for `CN(C)CCN1CCN(c2ccncc2NC(=O)c2c(N)nn3cc(Cl)cnc23)CC1` [I-N-49, 2-amino-6-chloro-N-(4-(4-(2-(dimethylamino)ethyl)piperazin-1-yl)pyridin-3-yl)pyrazolo[1,5-a]pyrimidine-3-carboxamide] was “+++ (Cisplatin sensitization value of <0.02 μM)”. `CN1CCN(c2cc(N)ncc2NC(=O)c2c(N)nn3cc(Cl)cnc23)CC1` [I-N-50, 2-amino-N-(6-amino-4-(4-methylpiperazin-1-yl)pyridin-3-yl)-6-chloropyrazolo[1,5-a]pyrimidine-3-carboxamide]: the “Cisplatin Sensitization Assay” value is reported as “+ (Cisplatin sensitization value>0.2 μM but <5 μM)”.
